Source: patent US5340823A, “Organosilane derivatives, pharmaceutical compositions containing them and process for preparing same” (Richter Gedeon Vegyeszeti Gyar RT., priority 1990, dated 1994)
Where two headings read alike, the source gives them in different places.

Key:
[1] = test system: GYKI-20039-induced tremor; experiment: GYKI-20039-induced tremor test on mice; type: in vivo, mice (male CFLP); conditions: for ED50: Mus musculus
Method: After administration of the test substance the mice were suspended on an isometric dynamometer in a light plastic box and the strength of the tremor was measured and quantified by electronic integration. The tremor strength of mice was averaged in the 4th-5th minutes following the treatment with 10 the test substance.
The animals were pretreated with various doses of the muscle relaxants to be tested before administration of the test substance. The time of pretreatment was 0 in intravenous examinations, whereas a pretreatment time of 10 minutes was used in oral investigations.
(§1) For the verification of the oral activity the tremor test was used on mice whereas the flexor reflex was investigated by using intraduodenal (i.d.) administration.

flexor reflex = experiment: Flexor reflex on anaesthetized cats; type: in vivo
Method: Method 3: Flexor reflex on anaesthetized cats
Chloralose-anaesthetized cats of both sexes weighing 2.2 to 5.4 kg each were used in these experiments. The flexor reflex of the animals was assessed by using the quantitative electromyographic method of Farkas et al. [Pharmacol. Res. Comm. 20, Suppl. 1, 141 (1988)].
[…] For characterization of duration of the effect the time (T75%) is shown, which passed after administration of this dose up to the return to 75% of the control value.
as §1

Straub's tail = Straub's tail test (morphine hydrochloride) on mice; type: in vivo, mice (male OF-1); conditions: for ED50: Mus musculus, ip, read-out: Straub's tail ED50 i.p.
Method: Method 2: Straub's tail test
The method of Novack [Drug Development Res. 2, 383 (1982)] was used with some modification. Groups consisting of 10 male OF-1 mice each weighing 19 to 21 g were intraperitoneally treated with 60 mg/kg of morphine hydrochloride. The formation (development) of Straub's stail was judged by 15 minutes after the morphine treatment. It was considered to be positive when the animal permanently kept his tail upwards in an angle being steeper than 45°. A pretreatment was carried out with various doses of the compound to be tested by 20 minutes before the time of reading. The ED50 value, i.e. the dose inhibiting the positive response in 50% of the animals, was calculated by using the method of Litchfield and Wilcoxon.
(The above author found a good correlation between the effectivity shown in this test method and the clinical effect of central muscle relaxants.)

[2] = Acute toxicity and therapeutic ratio on mice; type: in vivo; conditions: mouse, in vivo; for selectivity ratio: mice, LD50 to tremor ED50
Method: (§2) Method 4: Study on the acute toxicity
(§3) These experiments were carried out on groups consisting of 10 male and 10 female mice each weighing 19 to 21 g. For the determination of the intravenous toxicity the substances to be tested were dissolved in 10 ml/kg of body-weight of physiological saline and injected to the tail vein of CFLP mice during 1 minute. For evaluation of the oral toxicity the substances to be tested were dissolved in 10 ml/kg of body-weight of physiological saline and introduced to the stomach of OF-1 mice by using a rigid gastric tube. The perishing ratio of the animals was evaluated by 48 hours following the administration of the substance to be tested. The LD50 value, i.e. the dose causing the death of 50% of the animals was calculated by using the method of Litchfield and Wilcoxon. The therapeutic (safety) ratio was determined as the ratio of the LD50 value to ED50 value shown in the GYKI-20039-induced tremor test.

mice = experiment: Acute toxicity and therapeutic ratio on mice; type: in vivo; conditions: mice, i.v. and oral
Method: as §2, §3

[3] = test system: GYKI-20039-induced tremor; conditions: mice; literature (Coward et al.; Andrasi et al.); cited from earlier work
[4] = iv, Table 3, read-out: Muscle relaxant effect, Tremor ED50 i.v.
[5] = iv, pretreatment time 0, Table 1, read-out: GYKI-20039 (tremor) ED50 i.v.
[6] = po, Table 3, read-out: Muscle relaxant effect, Tremor ED50 p.o.
[7] = po, pretreatment 10 minutes, Table 2, read-out: Tremor test ED50 p.o.
[8] = 10 mg/kg i.v., time up to return to 75% of control
[9] = mice, i.p., 60 mg/kg morphine hydrochloride, Table 1
[10] = iv, CFLP mice, i.v., read-out: Acute toxicity LD50 i.v.
[11] = iv, i.v., read-out: Therapeutic ratio LD50/ED50 i.v.
[12] = po, OF-1 mice, p.o., read-out: Acute toxicity LD50 p.o.
[13] = po, p.o., read-out: Therapeutic ratio LD50/ED50 p.o.

Compound `CCc1ccc(C(=O)C(C)CN2CCCCC2)cc1` (centres unmarked) [Eperisone, eperisone, reference compound] has an ED50 [1, 4] of 7.8 mg/kg, an ED50 [1, 5] of 7.8 mg/kg and an ED50 [1, 6] of 126 mg/kg. The ED50 [1, 7] was 126 mg/kg, the “Flexor reflex, duration of effect T75%” value (flexor reflex; [8]) was 90 min and the “Flexor reflex, T75%” value (flexor reflex; 25 mg/kg i.d.) was 60 min. The “Flexor reflex, maximum inhibition” value (flexor reflex; 25 mg/kg i.d.) was 38.5%, the “Flexor reflex, T75%” value (flexor reflex; 50 mg/kg i.d.) was 190 min and the “Flexor reflex, maximum inhibition” value (flexor reflex; 50 mg/kg i.d.) was 74.8%. For the same compound, the ED50 (Straub's tail; [9]) was 63.6 mg/kg, the LD50 at 48 h [2, 10] was 53.4 mg/kg and the selectivity ratio [2, 11] was 6.8. It also gave an LD50 at 48 h [2, 12] of 320 mg/kg and a selectivity ratio [2, 13] of 2.5.
With `C[Si](C)(Cc1ccc(F)cc1)CN1CCCCC1.Cl` [Example 2, N-{[dimethyl-(4-fluorobenzyl)silyl]methyl}piperidine hydrochloride] the ED50 [1, 4] was 2.8 mg/kg, the ED50 [1, 5] was 2.8 mg/kg and the ED50 [1, 6] was 27.6 mg/kg. The ED50 [1, 7] was 27.6 mg/kg, the “activity relative to eperisone” value ([1]; oral route) was 5 times and the “activity relative to tolperisone” value ([1]; oral route) was 10 times. The “Flexor reflex, duration of effect T75%” value (flexor reflex; [8]) was > 180 min, the “Flexor reflex, T75%” value (flexor reflex; 12.5 mg/kg i.d.) was 230 min and the “Flexor reflex, maximum inhibition” value (flexor reflex; 12.5 mg/kg i.d.) was 44.8%. For the same compound, the “Flexor reflex, T75%” value (flexor reflex; 25 mg/kg i.d.) was > 300 min, the “Flexor reflex, maximum inhibition” value (flexor reflex; 25 mg/kg i.d.) was 82.1% and the “duration of effect compared with 4-fold doses of the reference drugs” value (flexor reflex; i.d.) was “exceeded even the duration of effect of 4-fold doses of the reference drugs”. For the same compound, the “dose needed to achieve a given effect relative to the dose of the reference drugs” value (flexor reflex; i.d., vs tolperisone and eperisone) was “half of the dose”, the ED50 (Straub's tail) was 21.8 mg/kg and the “therapeutic ratio in comparison to the reference drugs” value (mice) was “significantly more advantageous”. It also gave an LD50 at 48 h [2, 10] of 25.5 mg/kg, a selectivity ratio [2, 11] of 9.1 and an LD50 at 48 h [2, 12] of 228 mg/kg. For the same compound, the selectivity ratio [2, 13] was 8.3.
For `C[Si](C)(Cc1ccc(F)cc1)CN1CCCC1.Cl` [Example 10, N-{[dimethyl-(4-fluorobenzyl)silyl]methyl}-pyrrolidine hydrochloride], the ED50 [1, 5] was 2.8 mg/kg, the “Flexor reflex, duration of effect T75%” value (flexor reflex; [8]) was > 180 min and the ED50 (Straub's tail) was 22 mg/kg.
In the case of `C[Si](C)(CCCN1CCCC1)Cc1ccc(F)cc1.Cl` [Example 11, N-{[dimethyl-(4-fluorobenzyl)silyl]propyl}pyrrolidine hydrochloride], the ED50 [1, 5] is reported as 3.8 mg/kg, the “Flexor reflex, duration of effect T75%” value (flexor reflex; [8]) is reported as > 180 min and the ED50 (Straub's tail) is reported as 27.5 mg/kg.
For `C[Si](C)(CCCn1ccnc1)Cc1ccc(F)cc1.Cl` [Example 12, N-{[dimethyl-(4-fluorobenzyl)silyl]propyl}imidazole hydrochloride], the ED50 [1, 5] was 5.4 mg/kg, the “inhibition of flexor reflex” value (flexor reflex; 10 mg/kg i.v.) was 40% and the “Flexor reflex, duration of effect T75%” value (flexor reflex; [8]) was > 180 min. For the same compound, the ED50 (Straub's tail) was 26.9 mg/kg.
For `C[Si](C)(CCCN1CCCCC1)Cc1ccccc1.Cl` [Example 19, N -[(benzyldimethylsilyl)propyl]piperidine hydrochloride], the ED50 [1, 5] was 3.6 mg/kg, the “Flexor reflex, duration of effect T75%” value (flexor reflex; [8]) was > 180 min and the ED50 (Straub's tail) was 22.3 mg/kg.
In the case of `Cc1ccc(C[Si](C)(C)N2CCCCC2)c(C)c1.Cl` [Example 34], the “GYKI-20039 (tremor) ED50 i.v.” value ([1]; i.v., pretreatment time 0, Table 1) is reported as 8.7 mg/kg, the “Flexor reflex, duration of effect T75%” value (flexor reflex; i.v., 5 mg/kg (footnote *)) is reported as 120 min and the “inhibition of flexor reflex” value (flexor reflex; i.v., 5 mg/kg (footnote *)) is reported as 53%. For the same compound, the “Straub's tail ED50 i.p.” value (Straub's tail; [9]) was 30.7 mg/kg.
For `Cc1ccc(Cl)c(C[Si](C)(C)CN2CCCCC2)c1.Cl` [Example 35, N-{[(2-chloro-5-methylbenzyl)-dimethylsilyl]methyl}piperidine hydrochlorid], the ED50 [1, 5] was 3.7 mg/kg, the “Flexor reflex, duration of effect T75%” value (flexor reflex; [8]) was > 180 min and the ED50 (Straub's tail) was 25.9 mg/kg.
In the case of `N=C1SCCN1c1c(Cl)cccc1Cl` [GYKI-20039, reference compound], the induction of tremor [1] is reported as “induces a tremor on mice”.
In the case of `Cl.N=C(Cc1c(Cl)cccc1Cl)NC(N)=O` [LON-954], the induction of tremor [3] is listed as “induces a tremor on mice”.
`Cc1ccc(C(=O)C(C)CN2CCCCC2)cc1` (centres unmarked) [Tolperisone, tolperisone, reference compound] gave an ED50 [1, 4] of 10.1 mg/kg, an ED50 [1, 6] of 338 mg/kg and an ED50 [1, 7] of 338 mg/kg. The “Flexor reflex, duration of effect T75%” value (flexor reflex; [8]) was 50 min, the “Flexor reflex, T75%” value (flexor reflex; 25 mg/kg i.d.) was 60 min and the “Flexor reflex, maximum inhibition” value (flexor reflex; 25 mg/kg i.d.) was 33.1%. The “Flexor reflex, T75%” value (flexor reflex; 50 mg/kg i.d.) was 140 min, the “Flexor reflex, maximum inhibition” value (flexor reflex; 50 mg/kg i.d.) was 76.6% and the ED50 (Straub's tail; [9]) was 63 mg/kg. For the same compound, the LD50 at 48 h [2, 10] was 39.8 mg/kg, the selectivity ratio [2, 11] was 3.9 and the LD50 at 48 h [2, 12] was 612 mg/kg. The selectivity ratio [2, 13] was 1.8.
